In patent US20230348538A1, “METHOD FOR TREATMENT OF DRY EYE COMPRISNG APPLYING P55PIK INHIBITOR” (Wuhan Yicheng Biological Technology Co., Ltd., priority 2020, published 2023):

Assays:
[1] = tested on: dry eye model induced by 0.2% benzalkonium chloride solution; test: Benzalkonium chloride dry eye model: tear film break-up time (BUT); type: in vivo, C57BL/6 mice
Experimental: The healthy male C57BL/6 mice were kept in a controlled environment with a temperature of (25±1)° C., a relative humidity of (25±5)%, and light-dark cycles (9 AM-9 PM) with simulated dawn and dusk. Forty mice (80 eyes) were treated with 5 μL of 0.2% benzalkonium chloride solution twice a day (8:00 AM and 6:00 PM) for 14 days to induce dry eye symptoms, while the remaining ten mice (20 eyes) received no treatment and served as a baseline control. Modeling was carried out on the 15th day; and the dry eye rat models were screened based on tear film break-up time (BUT), fluorescein sodium staining of corneal, and Schirmer's test I for tear secretion. Tear film break-up time (BUT) was used to assess the tear film stability: 1 μL of 1% fluorescein sodium solution was instilled into the conjunctival sac of the mouse, and the mouse was held and blinked artificially three times; the upper and lower eyelids of the mouse were then separated; and the tear film was observed under cobalt blue filter on a slit lamp; the tear film break-up time was recorded as the number of seconds that elapse between the last blink and the appearance of the first dry spot in the tear film of the cornea; each eye was measured three times, and the average of the three measurements was recorded in seconds. […] Group A, the drug treatment group, was treated with the eye drops comprising 0.1% TAT-[…] peptide, four times a day; Group B, the solvent control group, was treated with eye drops without TAT-[…] peptide, four times a day; and Group C, the blank control group, received no treatment; on days 1, 4, and 7 after treatment, BUT, Schirmer's test I, and fluorescein sodium staining were performed; on the 7th day, the paraffin sections of the conjunctival fornix was stained by PAS stain; and the number of PAS-positive goblet cells was counted.

[2] = tested on: rabbit model of dry eye (0.1% benzalkonium chloride); test: Rabbit model of dry eye: tear film break-up time test; type: in vivo, New Zealand white rabbits
Experimental: 1.2.1 Grouping: thirty New Zealand white rabbits were randomly divided into three groups, each comprising 10 rabbits: a blank control group, a solvent control group, and a drug treatment group.
1.2.2 Preparation of a rabbit model of dry eye: the right eye of each rabbit was used to establish a dry eye rabbit model by administering 0.1% benzalkonium chloride eye drops twice a day for 4 weeks. After 4 weeks, the dry eye rabbit model was evaluated, with the conjunctiva appearing dry, tear production being reduced, and Schirmer test values being less than 10 mm/5 min (compared to the control group, where all Schirmer test values were above 10 mm).
1.2.3 Drug preparation and usage: a liquid formulation of 0.1% TAT-N16 peptide eye drops were prepared by dissolving the peptide raw materials in physiological saline according to a weight ratio of 0.1%. The eye drops comprising 0.1% TAT-N16 peptide were administered 2 drops, 3 times a day for 7 days. […]
1.3 Specimen collection and animal testing were conducted by the same individual. […] The rabbit conjunctiva appearance, fluorescein staining, tear film break-up time were analyzed using a slit lamp before and on days 4 and 7 after treatment; additionally, the Schirmer's test and conjunctival impression cytology (CIC) were carried out.
1.3.2 Tear film break-up time test: the fluorescein sodium ophthalmic strips were placed on the lower conjunctival sac for a moment, so that the fluorescein sodium was evenly distributed on the ocular surface; the eyelid was maintained open and observed under cobalt blue filter on a slit lamp; the tear film break-up time was recorded as the number of seconds that elapse between the last blink and the appearance of the first dry spot in the tear film of the cornea; The time from the opening of the eyelid to the appearance of the first dry spot on the tear film was recorded under a slit lamp microscope with cobalt blue light; each eye was measured three times, and the average of the three measurements was recorded in seconds.

[3] = tested on: dry eye model induced by 0.2% benzalkonium chloride solution; test: Benzalkonium chloride dry eye model: Schirmer's test I (phenol red thread); type: in vivo, C57BL/6 mice
Experimental: The healthy male C57BL/6 mice were kept in a controlled environment with a temperature of (25±1)° C., a relative humidity of (25±5)%, and light-dark cycles (9 AM-9 PM) with simulated dawn and dusk. Forty mice (80 eyes) were treated with 5 μL of 0.2% benzalkonium chloride solution twice a day (8:00 AM and 6:00 PM) for 14 days to induce dry eye symptoms, while the remaining ten mice (20 eyes) received no treatment and served as a baseline control. Modeling was carried out on the 15th day; and the dry eye rat models were screened based on tear film break-up time (BUT), fluorescein sodium staining of corneal, and Schirmer's test I for tear secretion. To assess tear secretion, Schirmer's test I was performed on mice at 3 PM each day using the phenol red thread; general anesthesia was induced by intraperitoneal injection of pentobarbital (50 mg/kg body weight); the lower eyelid was grasped and gently pulled down; front end of the phenol red thread, folded 1 mm, was placed on the conjunctival surface near the outer canthus of the lower eyelid for 15 seconds; the length of the red-stained portion of the phenol red thread was measured and recorded; the eyelid was then closed after the Schirmer's test I to avoid excessive exposure; each eye was tested twice, and the average length of the red-stained portion of the phenol red thread was recorded as the final result. […] Group A, the drug treatment group, was treated with the eye drops comprising 0.1% TAT-[…] peptide, four times a day; Group B, the solvent control group, was treated with eye drops without TAT-[…] peptide, four times a day; and Group C, the blank control group, received no treatment; on days 1, 4, and 7 after treatment, BUT, Schirmer's test I, and fluorescein sodium staining were performed; on the 7th day, the paraffin sections of the conjunctival fornix was stained by PAS stain; and the number of PAS-positive goblet cells was counted.

## TAT-N16 peptide: cell-penetrating artificial peptide, sequence SEQ ID NO: 2, constructed by linking the peptide N16 to a TAT sequence; P55PIK inhibitor (YGRKKRRQRRRMMPYSTELIFYIEMDP)
[1]; 0 d (baseline), drug treatment group, 0.1% eye drops
  Tear film break-up time (BUT) values (x ± s): 3.49 ± 0.43 s
[1]; 4th day of treatment
  Tear film break-up time compared with blank control group, model control group and solvent control group: significantly longer
[1]; 4 d, 0.1% eye drops four times a day
  Tear film break-up time (BUT) values (x ± s): 4.82 ± 0.57 s
[1]; 7 d, 0.1% eye drops four times a day
  Tear film break-up time (BUT) values (x ± s): 5.99 ± 0.55 s
[1]; 7 days of continuous treatment, P=0.007
  Tear film break-up time compared with blank control group, model control group and solvent control group: significantly longer
[2]; 0 d / before treatment (baseline), drug treatment group
  Tear film break-up time (BUT) values: 8.24 ± 1.13 s
[2]; 4 d, 0.1% eye drops 2 drops, 3 times a day
  Tear film break-up time (BUT) values: 11.72 ± 1.27 s
[2]; 7 d, 0.1% eye drops 2 drops, 3 times a day
  Tear film break-up time (BUT) values: 15.31 ± 1.85 s
[3]; 4th day of treatment
  Tear secretion volume compared with blank control group and solvent control group: significantly higher
[3]; 4 days of treatment, 0.1% eye drops four times a day
  Schirmer's test I values (x ± s): 5.14 ± 0.29 mm
[3]; 7 days of continuous treatment, P<0.05
  Tear secretion volume compared with blank control group and solvent control group: significantly higher
[3]; 7 days of treatment, 0.1% eye drops four times a day
  Schirmer's test I values (x ± s): 5.88 ± 0.63 mm
[3]; before treatment (baseline), drug treatment group, 0.1% eye drops
  Schirmer's test I values (x ± s): 4.19 ± 0.24 mm
